In experiment [1] the test system is E. coli KL-16 (GSC strain 4245). The experiment in a line: In vitro antibacterial activity (MIC assay), broth microdilution. In kind it is cell-based. The following applies: Escherichia coli. In short, it runs like this:
(§1)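 Broth microdilution per NCCLS M7-A5: 11-point 2-fold compound dilutions from DMSO stocks, inoculum about 5×10^5 CFU/mL, incubation 35° C for 16–24 h. MIC scored visually against no-compound growth controls, in μg/mL.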
A general note: Broth dilution looks for growth in wells or tubes with falling amounts of substance.

The test system of the next experiment is S. aureus ATCC13709. The experiment is described as above. Conditions: Staphylococcus aureus, ATCC13709; read-out: S. aureus ATCC13709 MIC. Format: cell-based. The gist of the method: as §1
Another experiment deals with S. pneumoniae ATCC49619. The experiment is described as above. Format: cell-based. Conditions: Streptococcus pneumoniae, ATCC49619; read-out: S. pneumoniae ATCC49619 MIC. The gist of the method:
as §1

In the next experiment the target is T1, E. coli DNA gyrase (Escherichia coli, UniProt P0AES4+P0AES6).
T1 construct: purchased John Innes Enterprises Ltd. (John Innes Centre, UK)
T1 sequence (P0AES4 whole entry, one chain of several): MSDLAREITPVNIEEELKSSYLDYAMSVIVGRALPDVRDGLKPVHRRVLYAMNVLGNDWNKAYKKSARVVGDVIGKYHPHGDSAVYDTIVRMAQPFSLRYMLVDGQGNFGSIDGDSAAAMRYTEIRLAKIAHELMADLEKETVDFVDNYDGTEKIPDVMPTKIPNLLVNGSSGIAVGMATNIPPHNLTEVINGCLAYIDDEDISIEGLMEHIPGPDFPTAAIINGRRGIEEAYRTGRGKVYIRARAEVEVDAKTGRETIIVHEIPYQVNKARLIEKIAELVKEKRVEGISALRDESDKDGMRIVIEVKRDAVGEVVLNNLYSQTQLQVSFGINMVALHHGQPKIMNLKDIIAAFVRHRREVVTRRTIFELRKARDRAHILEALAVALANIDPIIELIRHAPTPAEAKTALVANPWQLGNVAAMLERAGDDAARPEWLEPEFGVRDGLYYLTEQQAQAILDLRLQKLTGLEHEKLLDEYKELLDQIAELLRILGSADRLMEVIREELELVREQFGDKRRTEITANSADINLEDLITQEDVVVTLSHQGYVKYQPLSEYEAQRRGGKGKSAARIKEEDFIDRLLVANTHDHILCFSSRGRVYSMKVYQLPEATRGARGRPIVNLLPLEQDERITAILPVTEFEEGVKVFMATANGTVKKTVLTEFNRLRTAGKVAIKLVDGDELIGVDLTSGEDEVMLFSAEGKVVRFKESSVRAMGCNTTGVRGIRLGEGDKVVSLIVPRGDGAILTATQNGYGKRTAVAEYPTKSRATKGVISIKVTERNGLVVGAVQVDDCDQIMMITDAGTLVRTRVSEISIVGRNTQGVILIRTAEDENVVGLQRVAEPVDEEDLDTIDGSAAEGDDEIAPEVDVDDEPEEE
The experiment is described as follows: DNA gyrase inhibition assay (supercoiling). In kind it is biochemical. The following applies: E. coli DNA gyrase supercoiling, visual inspection of gels; read-out: DNA Gyrase IC50 (converted). In short, it runs like this:
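Relaxed pBR322 (250 ng) was supercoiled by 0.2 unit gyrase in Tris-HCl pH 7.5, KCl, MgCl2, DTT, spermidine, 1 mM ATP, glycerol, albumin, 0.5% DMSO final, 30 min at 37° C. Products were resolved on 1.0% agarose gels with ethidium bromide staining.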

Another experiment addresses T2, E. coli topoisomerase IV (Escherichia coli, UniProt P0AFI2+P20083).
T2 construct: purchased John Innes Enterprises Ltd. (John Innes Centre, UK)
The experiment is described as follows: Topoisomerase IV inhibition assay (relaxation). Format: biochemical. Conditions: E. coli topoisomerase IV relaxation, visual inspection of gels; read-out: Topoisomerase IV IC50 (converted). The gist of the method: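 Relaxation of 300 ng supercoiled pBR322 by 0.9 unit enzyme in HEPES-KOH pH 7.6 with potassium glutamate, Mg(OAc)2, DTT, tRNA, 2 mM ATP and BSA; final DMSO 0.5%. Reactions ran 45 min at 37° C. Products resolved on 1.0% agarose gels and stained with ethidium bromide.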

Another experiment has as its system MSSA ATCC 29213. The experiment is described as follows: Resistant strains assay (broth microdilution MIC). Conditions: Staphylococcus aureus, read-out: MIC, Column B. In kind it is cell-based. The protocol: (§2) Compounds of the present invention were tested for activity against susceptible and resistant bacterial strains in vitro, and activity was compared to known anti-bacterial agents. Testing protocols followed NCCLS methodology for broth microdilution assays. MIC values in μg/mL are presented in Table 3 for the following strains: Column A: MSSA ATCC13709 (Smith); Column B: MSSA ATCC 29213; Column C: MRSA OC3726 (COL); Column D: MRSA OC2878.

In another experiment the test system is MSSA ATCC13709 (Smith). The experiment is described as follows: Resistant strains assay (broth microdilution MIC). Format: cell-based. Conditions: Staphylococcus aureus. On the procedure:
as §2

The next experiment concerns CipR MRSA OC4159. The experiment is described as follows: Resistant strains assay (broth microdilution MIC). Format: cell-based. The following applies: Staphylococcus aureus, read-out: MIC, Column F. The text has this: (§3) Testing protocols followed NCCLS methodology for broth microdilution assays.
For another experiment, the system named is CipR MRSA OC4222. The experiment is described as follows: Resistant strains assay (broth microdilution MIC). In kind it is cell-based. Conditions: Staphylococcus aureus; CipR MRSA OC4222; read-out: MIC, Column G.
Text: as §3

The test system of a further experiment is CipR MRSA OC5273. The experiment is described as follows: Resistant strains assay (broth microdilution MIC). Format: cell-based. The following applies: Staphylococcus aureus, read-out: MIC, Column H.
Text: as §3

A further experiment has as its system MRSA OC2878. The experiment is described as follows: Resistant strains assay (broth microdilution MIC). In kind it is cell-based. Conditions: Staphylococcus aureus, read-out: MIC, Column D.
Text: as §3

A further experiment has as its system MRSA OC3726 (COL). The experiment is described as follows: Resistant strains assay (broth microdilution MIC). Format: cell-based. Conditions: Staphylococcus aureus, read-out: MIC, Column C.
Text: as §3

A further experiment relates to CipR MRSA OC3946. The experiment in a line: Resistant strains assay (broth microdilution MIC). Format: cell-based. The following applies: Staphylococcus aureus, read-out: MIC, Column E. On the procedure: as §2
MIC values in μg/mL are presented in Table 4 for the following strains: Column E: CipR MRSA OC3946; Column F: CipR MRSA OC4159; Column G: CipR MRSA OC4222; Column H: CipR MRSA OC5273.

Converted amounts (≈) assume the structure as drawn. Where two headings read alike, the source gives them in different places. A value given as a limit tells only on which side of the number the result lay.

T2 sequence (P0AFI2 whole entry): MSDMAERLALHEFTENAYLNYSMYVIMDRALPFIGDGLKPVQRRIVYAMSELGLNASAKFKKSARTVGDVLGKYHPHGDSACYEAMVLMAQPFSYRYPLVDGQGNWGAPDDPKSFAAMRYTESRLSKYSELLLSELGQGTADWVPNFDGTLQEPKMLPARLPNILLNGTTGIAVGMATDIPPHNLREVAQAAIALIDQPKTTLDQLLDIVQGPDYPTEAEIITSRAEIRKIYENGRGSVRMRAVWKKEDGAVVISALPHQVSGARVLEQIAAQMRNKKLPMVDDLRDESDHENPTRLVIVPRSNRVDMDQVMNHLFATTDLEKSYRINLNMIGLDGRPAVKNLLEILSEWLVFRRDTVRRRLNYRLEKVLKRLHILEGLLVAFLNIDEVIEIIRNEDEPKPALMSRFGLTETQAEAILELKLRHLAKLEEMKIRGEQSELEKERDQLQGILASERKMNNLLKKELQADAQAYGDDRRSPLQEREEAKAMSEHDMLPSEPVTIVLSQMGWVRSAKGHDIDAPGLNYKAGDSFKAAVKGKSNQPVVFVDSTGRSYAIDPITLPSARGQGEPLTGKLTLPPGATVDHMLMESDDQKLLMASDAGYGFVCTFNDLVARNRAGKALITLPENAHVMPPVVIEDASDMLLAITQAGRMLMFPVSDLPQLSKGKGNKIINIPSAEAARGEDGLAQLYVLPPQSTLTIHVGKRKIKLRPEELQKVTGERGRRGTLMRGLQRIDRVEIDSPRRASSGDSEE
T2 sequence (P20083 whole entry): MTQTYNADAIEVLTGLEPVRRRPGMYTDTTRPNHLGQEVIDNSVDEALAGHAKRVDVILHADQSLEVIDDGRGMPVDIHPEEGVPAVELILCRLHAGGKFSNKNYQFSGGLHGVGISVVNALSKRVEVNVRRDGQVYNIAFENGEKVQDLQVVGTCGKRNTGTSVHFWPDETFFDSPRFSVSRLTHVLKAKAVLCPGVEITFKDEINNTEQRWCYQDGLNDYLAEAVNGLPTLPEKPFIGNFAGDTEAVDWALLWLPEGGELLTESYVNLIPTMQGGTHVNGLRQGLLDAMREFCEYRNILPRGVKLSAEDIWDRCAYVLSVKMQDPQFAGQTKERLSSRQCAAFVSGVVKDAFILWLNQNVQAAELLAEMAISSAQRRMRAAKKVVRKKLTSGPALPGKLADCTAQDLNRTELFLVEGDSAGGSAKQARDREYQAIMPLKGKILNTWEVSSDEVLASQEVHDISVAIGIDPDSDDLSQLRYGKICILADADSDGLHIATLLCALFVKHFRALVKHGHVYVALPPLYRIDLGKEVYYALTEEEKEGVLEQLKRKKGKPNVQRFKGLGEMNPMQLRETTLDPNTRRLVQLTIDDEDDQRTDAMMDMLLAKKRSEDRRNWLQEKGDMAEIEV

A word on the MIC: it is the lowest concentration found to suppress growth. What is called IC50 is the concentration at which inhibition is half-maximal. For `COc1ccc2nccc(-n3cc4c(n3)CCC(NC(=O)c3ccc5c(c3)NC(=O)CS5)C4)c2n1` (centres unmarked) [Example 4, 3-Oxo-3,4-dihydro-2H-benzo[1,4]thiazine-6-carboxylic acid [2-(6-methoxy-[1,5]naphthyridin-4-yl)-4,5,6,7-tetrahydro-2H-indazol-5-yl]-amide], the minimal inhibitory concentration (MIC) was greater than 128 µg/mL in experiment [1]; 0.06 µg/mL (≈ 0.123 µM) with S. aureus ATCC13709; 4 µg/mL (≈ 8.22 µM) with S. pneumoniae ATCC49619; 1 µg/mL (≈ 2.06 µM) with MSSA ATCC 29213; 0.06 µg/mL (≈ 0.123 µM) with MSSA ATCC13709 (Smith); 0.5 µg/mL (≈ 1.03 µM) with CipR MRSA OC4159. In addition, the MIC in the experiment with CipR MRSA OC4222 worked out at 0.5 µg/mL (≈ 1.03 µM); with CipR MRSA OC5273, 0.062 µg/mL (≈ 0.127 µM); with MRSA OC2878 (MRSA OC2878), 0.031 µg/mL (≈ 0.0637 µM); in the experiment with MRSA OC3726 (COL) (MRSA OC3726 (COL)), 0.062 µg/mL (≈ 0.127 µM); with CipR MRSA OC3946 (CipR MRSA OC3946), 0.007 µg/mL (≈ 0.0144 µM). Further, the IC50 on E. coli DNA gyrase and at E. coli topoisomerase IV was 514 nM in each case.
As to `COc1ccc2nccc(-n3cc4c(n3)CCC(NC(=O)c3cc5c(cc3F)SCC(=O)N5)C4)c2n1` (centres unmarked) [Example 5, 7-Fluoro-3-oxo-3,4-dihydro-2H-benzo[1,4]thiazine-6-carboxylic acid [2-(6-methoxy-[1,5]naphthyridin-4-yl)-4,5,6,7-tetrahydro-2H-indazol-5-yl]-amide], the MIC in experiment [1] is 128 µg/mL (≈ 254 µM); in the experiment on S. aureus ATCC13709, 0.25 µg/mL (≈ 0.495 µM); with S. pneumoniae ATCC49619 it was 2 µg/mL (≈ 3.96 µM); in the experiment with MSSA ATCC 29213, 0.031 µg/mL (≈ 0.0614 µM); against MSSA ATCC13709 (Smith) it was 0.25 µg/mL (≈ 0.495 µM); in the experiment on CipR MRSA OC4159, 0.007 µg/mL (≈ 0.0139 µM). The minimal inhibitory concentration (MIC) in the experiment with CipR MRSA OC4222 is 0.015 µg/mL (≈ 0.0297 µM); with CipR MRSA OC5273, 0.031 µg/mL (≈ 0.0614 µM); in the experiment with MRSA OC2878 (MRSA OC2878), 0.031 µg/mL (≈ 0.0614 µM); in the experiment with MRSA OC3726 (COL) (MRSA OC3726 (COL)), 0.062 µg/mL (≈ 0.123 µM); in the experiment on CipR MRSA OC3946 (CipR MRSA OC3946), 0.007 µg/mL (≈ 0.0139 µM). In addition, the IC50 at E. coli DNA gyrase was 238 nM; on E. coli topoisomerase IV, 248 nM.
In the case of `COc1ccc2nccc(-n3cc4c(n3)CCC(NC(=O)c3ccc5c(c3)NC(=O)CS5)C4)c2c1` (centres unmarked) [Example 17, 3-Oxo-3,4-dihydro-2H-benzo[1,4]thiazine-6-carboxylic acid [2-(6-methoxy-quinolin-4-yl)-4,5,6,7-tetrahydro-2H-indazol-5-yl]-amide], the MIC is 4 µg/mL (≈ 8.24 µM) in experiment [1]; 0.25 µg/mL (≈ 0.515 µM) in the experiment with S. aureus ATCC13709; 2 µg/mL (≈ 4.12 µM) in the experiment with S. pneumoniae ATCC49619; 0.062 µg/mL (≈ 0.128 µM) in the experiment on MSSA ATCC 29213; 0.25 µg/mL (≈ 0.515 µM) against MSSA ATCC13709 (Smith); 0.031 µg/mL (≈ 0.0638 µM) with CipR MRSA OC4159. The minimal inhibitory concentration (MIC) with CipR MRSA OC4222 came out at 0.062 µg/mL (≈ 0.128 µM); in the experiment on CipR MRSA OC5273, 0.25 µg/mL (≈ 0.515 µM); in the experiment on MRSA OC2878 (MRSA) it was 0.125 µg/mL (≈ 0.257 µM); in the experiment with MRSA OC3726 (COL) (MRSA), 0.125 µg/mL (≈ 0.257 µM); in the experiment on CipR MRSA OC3946 (CipR MRSA OC3946), 0.015 µg/mL (≈ 0.0309 µM). Also, the half-maximal inhibitory concentration (IC50) at E. coli DNA gyrase is 247 nM; at E. coli topoisomerase IV, 257 nM.
Regarding `O=C1CSc2ccc(C(=O)NC3CCc4nn(-c5cccc6cccnc56)cc4C3)cc2N1` (centres unmarked) [Example 31, 3-Oxo-3,4-dihydro-2H-benzo[1,4]thiazine-6-carboxylic acid (2-quinolin-8-yl-4,5,6,7-tetrahydro-2H-indazol-5-yl)-amide], the minimal inhibitory concentration (MIC) in experiment [1] was 16 µg/mL (≈ 35.1 µM); in the experiment on S. aureus ATCC13709 it was 0.25 µg/mL (≈ 0.549 µM); in the experiment with S. pneumoniae ATCC49619, 4 µg/mL (≈ 8.78 µM); with MSSA ATCC 29213 it was 16 µg/mL (≈ 35.1 µM); against MSSA ATCC13709 (Smith), 0.25 µg/mL (≈ 0.549 µM); with CipR MRSA OC4159, 4 µg/mL (≈ 8.78 µM). The MIC amounted to 4 µg/mL (≈ 8.78 µM) in the experiment with CipR MRSA OC4222; 0.5 µg/mL (≈ 1.1 µM) with CipR MRSA OC5273; 0.25 µg/mL (≈ 0.549 µM) with MRSA OC2878 (MRSA OC2878); 0.5 µg/mL (≈ 1.1 µM) with MRSA OC3726 (COL) (MRSA OC3726 (COL)); 0.125 µg/mL (≈ 0.274 µM) with CipR MRSA OC3946 (MRSA). Also, the IC50 at E. coli DNA gyrase is 4390 nM; at E. coli topoisomerase IV, 274 nM.
As for `COc1ccc2nccc(-n3cc4c(n3)CCC(NCc3ccc5c(c3)NC(=O)CS5)C4)c2n1` (centres unmarked) [Example 41, 6-{[2-(6-Methoxy-[1,5]naphthyridin-4-yl)-4,5,6,7-tetrahydro-2H-indazol-5-ylamino]-methyl}-4H-benzo[1,4]thiazin-3-one], the MIC in experiment [1] turned out to be 2 µg/mL (≈ 4.23 µM); in the experiment with S. aureus ATCC13709, 0.25 µg/mL (≈ 0.529 µM); in the experiment on S. pneumoniae ATCC49619 it was 2 µg/mL (≈ 4.23 µM); in the experiment on MSSA ATCC 29213 it was 0.25 µg/mL (≈ 0.529 µM); in the experiment on MSSA ATCC13709 (Smith), 0.25 µg/mL (≈ 0.529 µM); with CipR MRSA OC4159, 0.25 µg/mL (≈ 0.529 µM). For the same compound, the minimum inhibitory concentration (MIC) in the experiment on CipR MRSA OC4222 stood at 0.25 µg/mL (≈ 0.529 µM); in the experiment on CipR MRSA OC5273 it was 0.5 µg/mL (≈ 1.06 µM); in the experiment on MRSA OC2878 (MRSA OC2878), 0.5 µg/mL (≈ 1.06 µM); with MRSA OC3726 (COL) (MRSA OC3726 (COL)) it was 1 µg/mL (≈ 2.12 µM); with CipR MRSA OC3946 (CipR MRSA OC3946), 0.25 µg/mL (≈ 0.529 µM). The concentration for half-maximal inhibition (IC50) is 127 nM at E. coli DNA gyrase and 33.9 nM on E. coli topoisomerase IV.
